According to patent US20230031406A1, “COMPOUNDS AND COMPOSITIONS FOR TREATING CONDITIONS ASSOCIATED WITH NLRP ACTIVITY” (Novartis AG, priority 2018, published 2023):
Read-outs that look alike come from different tables or passages of the source.

System: PMA-differentiated THP-1 cells
Test: IL-1β production in PMA-differentiated THP-1 cells stimulated with gramicidin (hTHP-1 assay containing 2% fetal bovine serum; Procedures 1 and 2)
Type: cell-based, human
Settings: 2% fetal bovine serum
Procedure, shortened: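 Compound titrations in 0.37% final DMSO were added to THP-1 cells that had been plated after 16-18 h PMA treatment, 50,000 per well in 2% FBS. One hour later the cells received gramicidin (5 μM, 2 h) and were centrifuged. HTRF detected IL-1β in the collected supernatants.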

[1] = Homo sapiens, THP-1, Table B3, hTHP-1 assay, class symbols, read-out: IC50
[2] = Table B2, class symbols, read-out: hTHP-1 IC50
[3] = Homo sapiens, THP-1, Table B1, class symbols, read-out: Average IC50 of compounds in hTHP-1 assay: hTHP-1 IC50
[4] = Table B1, class symbols, read-out: Average IC50 of compounds in hTHP-1 assay: hTHP-1 IC50
[5] = Homo sapiens, THP-1, Table B2, class symbols, read-out: hTHP-1 IC50
[6] = Homo sapiens, THP-1, Table B1, numeric bounds, read-out: Average IC50 of compounds in hTHP-1 assay: hTHP-1 IC50
[7] = Homo sapiens, THP-1, Table B2, numeric bounds, read-out: hTHP-1 IC50

Q: `C[C@](O)(CO)c1cc(F)c([S@@](N)(=O)=NC(=O)Nc2c3c(nc4c2CCC42CC2)CCC3)s1` [Example 677, (S)-5-((S)-1,2-dihydroxypropan-2-yl)-3-fluoro-N′-((1′,5′,6′,7′-tetrahydro-2′H-spiro[cyclopropane-1,3′-dicyclopenta[b,e]pyridin]-8′-yl)carbamoyl)thiophene-2-sulfonimidamide] was tested. Which IC50 [1] did it give?
A: The IC50 was 5 to 30 µM.

Q: With `CCc1c(C(F)(F)F)nc2c(c1NC(=O)N=S(N)(=O)c1cnc(C(C)(C)O)s1)CCC2` (single isomer, unassigned) [Compound 610a, (R) or (S)-N′-((3-ethyl-2-(trifluoromethyl)-6,7-dihydro-5H-cyclopenta[b]pyridin-4-yl)carbamoyl)-2-(2-hydroxypropan-2-yl)thiazole-5-sulfonimidamide] as the molecule, how does the IC50 [2] read?
A: Its IC50 is 1 to 5 µM.

Q: For `CC(C)c1csc(S(N)(=O)=NC(=O)Nc2c3c(nc4c2CCC4)CCC3)c1` (stereo not drawn) [Compound 173, N′-((1,2,3,5,6,7-hexahydrodicyclopenta[b,e]pyridin-8-yl)carbamoyl)-4-isopropylthiophene-2-sulfonimidamide], which IC50 [3] is on record?
A: The IC50 was 0.2 to 1 µM.

Q: For `CC1CCc2c1nc1c(c2NC(=O)N=S(N)(=O)c2cnn(C(C)C)c2)CCC1` (single isomer, unassigned) [Compound 171c, (R, R) and (R, S) or (S, R) and (S, S)-1-Isopropyl-N′-((3-methyl-1,2,3,5,6,7-hexahydrodicyclopenta [b,e]pyridin-8-yl)carbamoyl)-1H-pyrazole-4-sulfonimidamide], which IC50 [2] is on record?
A: The IC50 was 1 to 5 µM.

Q: For `CC(C)(O)c1csc(S(N)(=O)=NC(=O)Nc2c3c(nc4c2CCC4(C)C)CCC3)c1` (single isomer, unassigned) [Compound 127a, (S) or (R)-N′-((3,3-dimethyl-1,2,3,5,6,7-hexahydro-dicyclopenta[b,e]pyridin-8-yl)carbamoyl)-4-(2-hydroxypropan-2-yl)thiophene-2-sulfonimidamide], which IC50 [4] is on record?
A: Its IC50 is 1 to 5 µM.

Q: Which IC50 [2] does the source give for `CC(C)(O)c1cc(S(N)(=O)=NC(=O)Nc2c3c(nc4c2CCC4(C)C)CCC3)nn1-c1ccc(F)cc1` (single isomer, unassigned) [Compound 705b, (R) or (S)-N′-((3,3-dimethyl-1,2,3,5,6,7-hexahydrodicyclopenta [b,e]pyridin-8-yl)carbamoyl)-1-(4-fluorophenyl)-5-(2-hydroxypropan-2-yl)-1H-pyrazole-3-sulfonimidamide] here?
A: Its IC50 is 1 to 5 µM.

Q: With `CC(C)(O)c1cc(F)c(S(N)(=O)=NC(=O)Nc2cc(CC(F)(F)F)nc3c2CCC3)s1` (stereo not drawn) [Compound 602, 3-Fluoro-5-(2-hydroxypropan-2-yl)-N′-((2-(2,2,2-trifluoroethyl)-6,7-dihydro-5H-cyclopenta[b]pyridin-4-yl)carbamoyl)thiophene-2-sulfonimidamide] as the molecule, how does the IC50 [5] read?
A: Its IC50 is 1 to 5 µM.

Q: How did the IC50 (Table B4, class symbols, read-out: hTHP-1 IC50) turn out when `CCc1c(C(F)(F)F)nc2c(c1NC(=O)N=S(N)(=O)c1nn(CC)cc1F)CCC2` (single isomer, unassigned) [Example 772, (S) or (R)-1-ethyl-N′-((3-ethyl-2-(trifluoromethyl)-6,7-dihydro-5H-cyclopenta[b]pyridin-4-yl)carbamoyl)-4-fluoro-1H-pyrazole-3-sulfonimidamide] was run?
A: The IC50 was 5 to 30 µM.

Q: Which IC50 [6] does the source give for `Cn1nc(S(N)(=O)=NC(=O)Nc2c3c(nc4c2CCC4)CCC3)cc1C(C)(C)O` (single isomer, unassigned) [Compound 158b, (S) or (R)-N′-((1,2,3,5,6,7-hexahydrodicyclo-penta[b,e]pyridin-8-yl)carbamoyl)-5-(2-hydroxypropan-2-yl)-1-methyl-1H-pyrazole-3-sulfonimidamide] here?
A: The IC50 was greater than 30 µM.

Q: Which IC50 (Homo sapiens, THP-1, Table B3, hTHP-1 assay, numeric values, read-out: IC50) does the source give for `Cc1c(C2(F)CC2)nc2c(c1NC(=O)N=S(N)(=O)c1cc(C(C)(C)O)cs1)CCC2` (single isomer, unassigned) [Example 684, (S) or (R)-N′-((2-(1-fluorocyclopropyl)-3-methyl-6,7-dihydro-5H-cyclopenta[b]pyridin-4-yl)carbamoyl)-4-(2-hydroxypropan-2-yl)thiophene-2-sulfonimidamide] here?
A: Its IC50 is greater than 30 µM.

Q: For `CCC1CCc2c1nc1c(c2NC(=O)N=S(N)(=O)c2ccn(C(F)F)n2)CCC1` (stereo not drawn) [Compound 668, 1-(Difluoromethyl)-N′-((3-ethyl-1,2,3,5,6,7-hexahydrodicyclopenta[b,e]pyridin-8-yl)carbamoyl)-1H-pyrazole-3-sulfonimidamide], which IC50 [2] is on record?
A: The IC50 was 5 to 30 µM.

Q: `Cc1c(C(F)(F)F)nc2c(c1NC(=O)N=S(N)(=O)c1ccn(C(C)C)n1)CCC2` (single isomer, unassigned) [Compound 628a, (S) or (R)-1-Isopropyl-N′-((3-methyl-2-(trifluoromethyl)-6,7-dihydro-5H-cyclopenta[b]pyridin-4-yl)carbamoyl)-1H-pyrazole-3-sulfonimidamide] was tested. Which IC50 [7] did it give?
A: The IC50 was greater than 30 µM.

Q: How did the IC50 [5] turn out when `CC(C)n1nc(S(N)(=O)=NC(=O)Nc2c3c(nc4c2CCC4(C)C)CCC3)cc1C(C)(C)O` (single isomer, unassigned) [Compound 615b, (R) or (S)-N′-((3,3-dimethyl-1,2,3,5,6,7-hexahydrodicyclopenta [b,e]pyridin-8-yl)carbamoyl)-5-(2-hydroxypropan-2-yl)-1-isopropyl-1H-pyrazole-3-sulfonimidamide] was run?
A: Its IC50 is 1 to 5 µM.

Q: With `Cc1c(C2CC2)nc2c(c1NC(=O)N=S(N)(=O)c1cc(C(C)(C)O)cs1)CCC2C` (single isomer, unassigned) [Compound 656a, (R, R) or (R, S) or (S, R) or (S, S)-N′-((2-Cyclopropyl-3,7-dimethyl-6,7-dihydro-5H-cyclopenta[b]pyridin-4-yl)carbamoyl)-4-(2-hydroxypropan-2-yl)thiophene-2-sulfonimidamide] as the molecule, how does the IC50 [2] read?
A: Its IC50 is 0.2 to 1 µM.

Q: How did the IC50 [3] turn out when `CC(C)(O)c1ncc(S(N)(=O)=NC(=O)Nc2c3c(nc4c2CCC4)CCCC3)s1` (stereo not drawn) [Compound 161, N′-((2,3,5,6,7,8-hexahydro-1H-cyclopenta[b]quinolin-9-yl)carbamoyl)-2-(2-hydroxypropan-2-yl)thiazole-5-sulfonimidamide] was run?
A: Its IC50 is 1 to 5 µM.

Q: For `CC(C)n1nc(S(N)(=O)=NC(=O)Nc2c3c(nc4c2CCC4(C)C)CCC3)cc1C(C)(C)O` (single isomer, unassigned) [Compound 615a, (S) or (R)-N′-((3,3-dimethyl-1,2,3,5,6,7-hexahydrodicyclopenta [b,e]pyridin-8-yl)carbamoyl)-5-(2-hydroxypropan-2-yl)-1-isopropyl-1H-pyrazole-3-sulfonimidamide], which IC50 [7] is on record?
A: Its IC50 is greater than 30 µM.

Q: With `CC(C)(O)c1cccc(S(N)(=O)=NC(=O)Nc2c3c(nc4c2CCC4(C)C)CCC3)n1` (stereo not drawn) [Example 630, N′-((3,3-dimethyl-1,2,3,5,6,7-hexahydrodicyclopenta[b,e]pyridin-8-yl)carbamoyl)-6-(2-hydroxypropan-2-yl)pyridine-2-sulfonimidamide] as the molecule, how does the IC50 [1] read?
A: Its IC50 is 5 to 30 µM.

Q: `CC1CCc2c1nc1c(c2NC(=O)N=S(N)(=O)c2ncc(C(C)(C)O)s2)CCC1` (single isomer, unassigned) [Compound 140ba, (S,S) or (S,R)-5-(2-hydroxypropan-2-yl)-N′-((3-methyl-1,2,3,5,6,7-hexa-hydrodicyclo-penta[b,e]pyridin-8-yl)carbamoyl)thiazole-2-sulfonimidamide] was tested. Which IC50 [4] did it give?
A: The IC50 was 5 to 30 µM.

Q: How did the IC50 [5] turn out when `CCc1nc2c(c(NC(=O)N=S(N)(=O)c3ccn(C(F)F)n3)c1C1CC1)CCC2` (stereo not drawn) [Compound 629, N′-((3-cyclopropyl-2-ethyl-6,7-dihydro-5H-cyclopenta[b]pyridin-4-yl)carbamoyl)-1-(difluoromethyl)-1H-pyrazole-3-sulfonimidamide] was run?
A: Its IC50 is 1 to 5 µM.

Q: How did the IC50 [5] turn out when `Cc1c(C2(C)CC2)nc2c(c1NC(=O)N=S(N)(=O)c1cc(C(C)(C)O)cs1)CCC2` (stereo not drawn) [Compound 669, 4-(2-Hydroxypropan-2-yl)-N′-((3-methyl-2-(1-methylcyclopropyl)-6,7-dihydro-5H-cyclopenta[b]pyridin-4-yl)carbamoyl)thiophene-2-sulfonimidamide] was run?
A: The IC50 was 5 to 30 µM.

Q: How did the IC50 [6] turn out when `CC(C)(O)c1ncc(S(N)(=O)=NC(=O)Nc2nc3ccccc3c3c2CCC3)s1` (stereo not drawn) [Compound 111, N′-((2,3-dihydro-1H-cyclopenta[c]quinolin-4-yl)carbamoyl)-2-(2-hydroxypropan-2-yl)thiazole-5-sulfonimidamide] was run?
A: Its IC50 is greater than 30 µM.

Q: With `Cc1sc(S(N)(=O)=NC(=O)Nc2c3c(nc4c2CCC4)CCC3)cc1C(C)(C)O` (single isomer, unassigned) [Compound 107a, (R) or (S)-N′-((1,2,3,5,6,7-hexahydrodicyclo-penta[b,e]pyridin-8-yl)carbamoyl)-4-(2-hydroxypropan-2-yl)-5-methylthiophene-2-sulfonimidamide] as the molecule, how does the IC50 [4] read?
A: The IC50 was 0.2 to 1 µM.

Q: `CCn1ccc(S(N)(=O)=NC(=O)Nc2c3c(nc4c2CC[C@H]4C)CCC3)n1` (stereo partly drawn) [Compound 634, 1-Ethyl-N′-(((R)-3-methyl-1,2,3,5,6,7-hexahydrodicyclopenta[b,e]pyridin-8-yl)carbamoyl)-1H-pyrazole-3-sulfonimidamide] was tested. Which IC50 [5] did it give?
A: Its IC50 is 0.04 to 0.2 µM.

Q: How did the IC50 [2] turn out when `COCc1nc(C(C)(C)O)sc1S(N)(=O)=NC(=O)Nc1c2c(nc3c1CCC3(C)C)CCC2` (single isomer, unassigned) [Compound 170b, (S) or (R)-N′-((3,3-dimethyl-1,2,3,5,6,7-hexahydrodicyclopenta [b,e]pyridin-8-yl)carbamoyl)-2-(2-hydroxypropan-2-yl)-4-(methoxymethyl) thiazole-5-sulfonimidamide] was run?
A: Its IC50 is 5 to 30 µM.
